According to patent US6352996B1, “Liposomal prodrugs comprising derivatives of camptothecin and methods of treating cancer using these prodrugs” (priority 1999, dated 2002):
Where two headings read alike, the source gives them in different places.

Experiments:
[1] = Closed lactone form in human plasma after oral administration; details: for % present as closed lactone form in human blood/plasma: after oral administration (FIGS. 2, 4, 5, 7, 8)
[2] = Stability of lactone form in human plasma; assay type: in vitro ADME; details: for Percent in plasma (lactone, percent of the initial lactone amount added): 1 μg/ml
Experimental: CPT or SF6A lactone was added to human plasma (1 μg/ml) and an incubation and lactone determination were made as described in Example 15. The lactone amount at each time-point was detected after removing the carboxylate form, and subsequently was calculated as percent of the initial lactone amount added. The results shown in this Table below were derived from one of the three independent experiments performed using different incubation times. The pattern of quantitation of the lactones was similar in all three experiments.

[3] = cited from earlier work
[4] = Closed lactone form in plasma of mice after intrastomach administration; assay type: in vivo; details: mice, plasma after intrastomach administration (FIG. 1)
U-937 cells = assay: Growth inhibition of U-937 cells treated with CPT esters; assay type: cell-based; details: 0.2 μM, 120 hr, percent of exponential growth of untreated cells (100%), mean of four estimates
Experimental: Growth inhibition of U-937 cells treated with various CPT esters.
Each identified compound was added to reach a culture of U-937 cell having a final concentration of 0.2 μM. The treatment time was for 120 hr. Growth inhibition in each of the treated cultures was then estimated as a percent of the exponential growth of the cells that was considered 100%. Each estimate was the mean value of four estimates.

McC colon carcinoma = details: 20 mg/kg intrastomach or intramuscular twice a week, day 11 to day 25 (FIG. 14)
Experimental: (§1) One group of six nude mice where treated interstomach with 10 or 20 mg,/kg body weight Compound IA in cottonseed oil per day for five consecutive days with two day intervals of no treatment (i.e., five days of treatment then two days no treatment, and five day treatment and so on). Another group of six nude mice were treated with 10 or 20 mg/kg body weight Compound IA in the same manner. There were also two control groups of six nude mice each. The designation of “fast” means no food was fed to the mice for at least 12 hours before treatment and the designation of “non-fast” means fed normally. Thus, in this experiment, there were 4 groups of mice with 6 mice in each group.

SW48 colon carcinoma = details: interstomach 10 or 20 mg/kg in cottonseed oil, 5 days on/2 days off, fast and non-fast, day 13-34 (FIG. 9)
From the text: (§2) Swiss nude mice of the NIH high fertility strain were bred and maintained pathogen-free in a laboratory. (Giovanella, B. C. and Stehlin, J. S. “Heterotransplantation of human malignant tumors in ‘nude’ thymusless mice. I. Breeding and maintenance of ‘nude’ mice.” J. Natl. Cancer Inst. 51: 615-619; 1973.)
(§3) Human malignant carcinomas of the colon, breast, lung, ovary, stomach, pancreas, bladder, prostate, osteosarcoma and malignant melanomas were heterotransplanted directly from patients into the nude mice and passaged serially. In particular, the tumors CLO, MUR, CAS, SW 48, SQU and BRO as described in Giovanella, B. C., Stehlin, J. S., Shepard, R. C. and Williams, L. J. “Correlation between response to chemotherapy of human tumors in patients and in nude mice.” Cancer 52: 1146-1152; 1983, tumor SCH as described in Heim, S., Mandahl, N., Arheden, K., Giovanella, B. C., Yim, S. O., Stehlin, J. S., Jr. and Mitebman, F. “Multiple karyotypic abnormalities including structural rearrangements of 11P in cell lines from malignant melanomas.” Cancer Genet. Cytogent, 35:5-20; 1988, and Verschraegen, C., Ciovanella, B. C., Mendoza, J. T., Kozielski, A. J. and Stehlin, J. S., Jr. “Specific organ metastases of human melanoma cells injected into the arterial circulation of nude mice.” Anticancer Res., In Press, and tumor PC-3 as described in Invest. Urol. 17, 16-23, 1979, were used. […]

SQU colon carcinoma = details: 10 mg/kg intrastomach or intramuscular, until day 111 (FIG. 15)
From the text: as §2, §3

BRE stomach carcinoma = details: 10 and 20 mg/kg intrastomach, until day 34 (FIG. 11)
From the text: Human malignant carcinomas of the colon, breast, lung, ovary, stomach, pancreas, bladder, prostate, osteosarcoma and malignant melanomas were heterotransplanted directly from patients into the nude mice and passaged serially. […] Tumors DOY and HAR (undifferentiated non-oat cell carcinomas of the lung), DIL (a poorly differentiated squamous cell carcinoma of the lung), SPA (a moderately differentiated adenocarcinoma of the lung), LAN (an undifferentiated carcinoma of the ovary), and BRE (a moderately differentiated adenocarcinoma of the stomach) where heterotransplanted. For the experiments, the tumor tissue was finely minced in complete MEM medium and 0.5 ml of a 10% v/v suspension was inoculated subcutaneously on the upper back of groups of 10-30 mice. When the tumors became palpable and measurable in all the animals, they were divided into groups of 4-8 and treated with the desired dose of the drug in experiment or with the vehicle only for the controls,
The dosage regimen and manner of administration are the same as in FIG. 9 except there were 5 mice per group and only one control group.

human tumor xenografts = details: nude mice
BRO melanoma = details: 20 mg/kg intrastomach, 20 days (FIG. 10)
From the text: as §3

DOY lung carcinoma = details: 10 and 20 mg/kg intrastomach, day 34 (FIG. 12)
From the text: as §3

2774 ovarian carcinoma = details: for tumor size: day 41 (FIG. 13)
Experimental: as §1
The route of administration and the dosage regimen were the same as in FIG. 9 except there were only 5 mice in each group and only one control group was used.

## CC[C@@]1(O)C(=O)OCc2c1cc1n(c2=O)Cc2cc3ccccc3nc2-1 [CPT, 20(S)-camptothecin]
[1]
  % present as closed lactone form in human blood/plasma: 0.4%
[1]; humans, after oral administration (FIG. 2)
  closed ring lactone form, share of the area under the curve: about 0.4%
[2]; Time 0 Hr
  Lactone % in Human Plasma: 100%
[2]; Time 1 Hr
  Lactone % in Human Plasma: 12%
[2]; Time 2 Hr
  Lactone % in Human Plasma: 0.5%
[2]; Time 4 Hr
  Lactone % in Human Plasma: 0%
[2]; Time 6 Hr
  Lactone % in Human Plasma: 0%
[2]; human plasma
  metabolite detected: the only metabolite detected is the ring-opened sodium carboxylate salt
[2]; human plasma, incubation time 0.0 hr
  Percent in plasma (lactone, percent of the initial lactone amount added): 100.0%
[2]; human plasma, incubation time 0.5 hr
  Percent in plasma (lactone, percent of the initial lactone amount added): 40.0%
[2]; human plasma, incubation time 1.0 hr
  Percent in plasma (lactone, percent of the initial lactone amount added): 12.0%
[2]; human plasma, incubation time 2.0 hr
  Percent in plasma (lactone, percent of the initial lactone amount added): 0.5%
[2]; human plasma, incubation time 4.0 hr
  Percent in plasma (lactone, percent of the initial lactone amount added): 0.0%
[2]; human plasma, incubation time 6.0 hr
  Percent in plasma (lactone, percent of the initial lactone amount added): 0.0%
[2]; human plasma, incubation time 27.0 hr
  Percent in plasma (lactone, percent of the initial lactone amount added): 0.0%
[2]; human, human plasma, read-out: half-life time of the drug with lactone intact
  half-life: 30 min
[3]
  solubility in water: insoluble in water
[4]
  closed lactone form, share of the area under the curve: approximately 54%
U-937 cells
  Growth %: 0.0%

## CCC(=O)O[C@]1(CC)C(=O)OCc2c1cc1n(c2=O)Cc2cc3c([N+](=O)[O-])cccc3nc2-1 [Prodrug 11, 9-Nitrocamptothecin-20-O-propionate]
McC colon carcinoma
  tumor size: increased slightly but then stabilized
SW48 colon carcinoma
  tumor size: decline in the tumor size
SQU colon carcinoma
  tumor size: essentially stabilized
[1]
  % present as closed lactone form in human blood/plasma: 68.7%
[1]; human, oral administration, versus CPT or 9NC
  increase of lactone share over the parent compound: more than twentyfold
BRE stomach carcinoma
  tumor size: prevention of the growth in the tumor size
Human tumor xenografts
  antitumor activity against xenografts of human tumors: even higher than the camptothecin analogue, Prodrug 2
BRO melanoma
  tumor size: decreased in size
DOY lung carcinoma
  tumor size: dramatic reduction
2774 ovarian carcinoma; 5 mice per group, day 41
  survival: all mice survived the experiment in each group
2774 ovarian carcinoma; higher dosage (10 and 20 mg/kg tested) intrastomach
  tumor size: quite effective in reducing the tumor size
2774 ovarian carcinoma; lesser dosage (10 and 20 mg/kg tested) intrastomach
  tumor size: steady increase in tumor size
